Residues, ends and D or L forms follow the SMILES beside them.
Experiments:
BIR3 domain of XIAP = target: T1, BIR3 domain of XIAP (Homo sapiens, UniProt P98170); experiment: Fluorescence displacement assay: AVPC-badan displaced from BIR3 by test tetrapeptide (typical assay, Tables 1 and 2); format: binding, mammalian; details: for K: binding (equilibrium) constant for displacement of AVP-dye, position-4 library, 5 μM dye and protein, larger = greater affinity; for Intensity (470 nm): emission intensity of AVPC-badan with BIR3 and test tetrapeptide, excitation 387 nm, lower = more dye displaced; for Fraction free: fraction of AVPC-badan free (displaced from BIR3), from intensity at 470 nm
T1 construct: Recombinant XIAP-BIR3 (residues 238-358); GST (N, cleaved yes); made in house; host or cells: E. coli
Source text: The ability to quickly assay small molecules for their effectiveness in disrupting protein-protein interactions is critical to the development of viable drug candidates. One aspect of the present invention comprises an assay to test the binding affinity of a library of tetrapeptide molecules for the BIR3 domain of an inhibitor of apoptosis protein (LAP), particularly the mammalian XIAP. The assay is based on a detectable label, preferably a fluorogenic dye molecule. In preferred embodiments, the fluorophore is attached to a tripeptide, AVP, whose sequence matches the N-terminal three residues of Smac. The general structure of this molecule, therefore, is AVP[X], wherein X is the fluorophore. The molecule is referred to herein as an “AVP-dye”. The AVP-dye packs into the groove of the BIR3, causing a large shift in emission maximum and intensity when the environment of the dye changes from water to the hydrophobic pocket of the protein. If a molecule (e.g. the native Smac protein or a tetrapeptide mimic) displaces the dye, then emission will shift back to the spectrum observed in water. Since the emission intensity is related to the binding of the tetrapeptide, the intensity can be used to estimate the equilibrium constant, K, for displacement of the AVP-dye by the tetrapeptide. The larger the equilibrium constant, the greater affinity the tetrapeptide has for the BIR3.
The aforementioned AVP-dye is used in an assay of test compounds that may, like the Smac tetrapeptide AVPI, bind to the BIR3 domain of XIAP, thereby relieving XIAP-mediated suppression of apoptosis. This is a high-throughput, cell-free assay, that is assembled as follows. A protein comprising the BIR3 domain of an IAP is placed in an assay medium comprising a suitable buffer, as described above. Preferably, this is a recombinant protein comprising the BIR3 domain, but a full IAP protein also may be used. An aliquot of the AVP-dye is added to the reaction mixture, in the presence of the test compound. Controls comprise the BIR3 and the dye in the absence of the test compound and, optionally, BIR3 and the dye in the presence of the naturally occurring tetrapeptide, AVPI. […] Alternatively, a emission spectrum is measured at the selected excitation wavelength. In one type of measurement, the test compound is added and an emission spectrum is measured by scanning from, e.g., 460-480 nm. In another type of measurement, the emission intensity at a particular wavelength, e.g., 470 nm, is measured. […] Thus, the binding affinity of the test compound may be calculated as a function of its ability to displace the dye from the BIR3 domain, according to the following calculation: [formula]
Stock solution of badan, BIR3, and buffer were mixed: 2.5 ml of badan, 1.75 ml BIR3, and 15.25 ml of buffer were mixed in a glass vial which had been chilled to 4° C. Added 390 μL of the stock solution to 50 wells in the pre-chilled 96 well plate (wells A1-E2).
Stock solution of badan and buffer were mixed: 150 μL badan and 1020 μL of buffer were mixed in a small glass vial (also chilled) and added to 3 wells on the plate in 390 μL aliquots (F1-F3).
The 96 well plate was stored over ice in an insulated bucket while the emission spectra of the samples were taken. Fifty μL of the appropriate test solution (or water, for the control experiments) was added with a micropipet, the solution mixed with a Pasteur pipet before adding the sample to the fluorescence cuvette. While one sample was being scanned, the cuvette from the previous scan was washed with EtOH and then next sample was prepared.

[1] = target: T2, BIR3 domain of XIAP (recombinant XIAP-BIR3, residues 238-358) (Homo sapiens, UniProt P98170); experiment: Fluorescence-based competition assay of tetrapeptide libraries (Example 1); format: binding, mammalian
T2 construct: Recombinant XIAP-BIR3 (residues 238-358); GST (N, cleaved yes); made in house; host or cells: E. coli
Source text: Expression and Purification of BIR3. […] The soluble fraction of the GST-BIR3 in the E. coli lysate was purified over a glutathione sepharose column, and further purified by anion exchange chromatography (Mono-Q, Amersham Biosciences). The fusion protein was cleaved by thrombin, and the GST portion was removed by the glutathione sepharose column. The BIR3 protein was further purified over a gel filtration column (Superdex 30, Amersham Biosciences).
Fluorescence Experiments. Luminescence spectra were recorded using a Photon Technologies, Inc. fluorometer with a Xe arc lamp and a PMT detector. […] The buffer used in all of the fluorescence experiments was 50 mM potassium phosphate, 100 mM NaCl, 2 mM 1,4-dithio-DL-threitol (DTT), pH 7.
Assay of Tetrapeptide Libraries. The samples were prepared in a 96 well plate lined with glass tubes, to prevent adsorption of the dye to plastic. The plate was stored on ice in the dark between measurements. […] 390 μL of this stock solution were added to 50 wells of the 96 well plate. 50 μL of the test tetrapeptide solutions were added and mixed immediately prior to taking the emission spectra. The final solutions were 5 μM in both badan and BIR3, and approximately 20-30 μM in the tetrapeptide solutions. […] 50 μL of water was added to these wells, again as controls, to determine the intensity of the unbound dye.
The binding of various tetrapeptide mimics to the BIR3 domain of XIAP was determined using a fluorescence-based competition assay. The assay is based on an environment-sensitive fluorogenic dye molecule, badan. Badan is a dye whose sensitivity to environmental changes has previously been used to probe protein binding interactions. […] As the dye is displaced from the binding pocket by the test molecule, the emission shifts back towards the aquated spectrum.

[2] = target: Recombinant XIAP-BIR3 (residues 238-358) (UniProt P98170); experiment: fluorescence competition, displacement of AVPC-badan from BIR3
[3] = target: T3, Recombinant XIAP-BIR3 (residues 238-358) (UniProt P98170 238-358); experiment: as above
T3 construct: also called BIR3 domain of XIAP; BIR3 protein
T3 sequence (P98170 238-358 limits assumed): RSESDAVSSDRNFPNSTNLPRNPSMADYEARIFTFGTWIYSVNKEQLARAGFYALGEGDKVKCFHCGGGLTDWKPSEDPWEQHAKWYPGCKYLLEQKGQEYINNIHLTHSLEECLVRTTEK
Experimental: The samples were prepared in a 96 well plate lined with glass tubes, to prevent adsorption of the dye to plastic. The plate was stored on ice in the dark between measurements. A small volume cuvette, with a path length of 2 mm, was used to collect the emission spectra. […] 390 μL of this stock solution were added to 50 wells of the 96 well plate. 50 μL of the test tetrapeptide solutions were added and mixed immediately prior to taking the emission spectra. […] 50 μL of water was added to these wells, again as controls, to determine the intensity of the unbound dye.
The binding of various tetrapeptide mimics to the BIR3 domain of XIAP was determined using a fluorescence-based competition assay. […] As the dye is displaced from the binding pocket by the test molecule, the emission shifts back towards the aquated spectrum.

T2 sequence (P98170 238-358): as the sequence (P98170 238-358 limits assumed) above
T1 sequence (P98170 238-358): as the sequence (P98170 238-358 limits assumed) above
Chain of Recombinant XIAP-BIR3 (residues 238-358) (UniProt P98170) (P98170 238-358 limits assumed): as above

Row | Molecule | K (BIR3 domain of XIAP) | Kd [1] [µM] | Kd [3] [µM] | also measured
1 | CC(C)[C@H](NC(=O)[C@H](C)N)C(=O)N1CCC[C@H]1C(=O)NCC(N)=O [AVPG] (H-AVPG-NH2; N-terminus and C-terminus assumed) | 0.08948 | 4.7 |  | 
2 | CC(C)[C@H](NC(=O)[C@H](C)N)C(=O)N1CCC[C@H]1C(=O)N[C@@H](Cc1c[nH]cn1)C(N)=O [AVPH] (H-AVPH-NH2; N-terminus and C-terminus assumed) | 0.07521 | 7.3 |  | 
3 | CC(C)[C@H](NC(=O)[C@H](C)N)C(=O)N1CCC[C@H]1C(=O)N[C@@H](CCCCN)C(N)=O [AVPK] (H-AVPK-NH2; N-terminus and C-terminus assumed) | 0.00702 | 28 |  | 
4 | CC(C)C[C@H](NC(=O)[C@@H]1CCCN1C(=O)[C@@H](NC(=O)[C@H](C)N)C(C)C)C(N)=O [AVPL] (H-AVPL-NH2; N-terminus and C-terminus assumed) | 0.3423 | 0.49 |  | 
5 | CSCC[C@H](NC(=O)[C@@H]1CCCN1C(=O)[C@@H](NC(=O)[C@H](C)N)C(C)C)C(N)=O [AVPM] (H-AVPM-NH2; N-terminus and C-terminus assumed) | 0.05288 | 2.3 |  | 
6 | CC(C)[C@H](NC(=O)[C@H](C)N)C(=O)N1CCC[C@H]1C(=O)N1CCC[C@H]1C(N)=O [AVPP] (H-AVPP-NH2; N-terminus and C-terminus assumed) | 0.01069 | 5.7 |  | 
7 | CC(C)[C@H](NC(=O)[C@H](C)N)C(=O)N1CCC[C@H]1C(=O)N[C@@H](CO)C(N)=O [AVPS] (H-AVPS-NH2; N-terminus and C-terminus assumed) | 0.01304 | 4.4 |  | 
8 | CC(C)[C@H](NC(=O)[C@H](C)N)C(=O)N1CCC[C@H]1C(=O)N[C@H](C(N)=O)[C@@H](C)O [AVPT] (H-AVPT-NH2; N-terminus and C-terminus assumed) | 0.143 | 2.1 |  | 
9 | CC(C)[C@H](NC(=O)[C@@H]1CCCN1C(=O)[C@@H](NC(=O)[C@H](C)N)C(C)C)C(N)=O [AVPV] (H-AVPV-NH2; N-terminus and C-terminus assumed) | 0.1011 | 1.5 |  | 
10 | CC(C)[C@H](NC(=O)[C@H](C)N)C(=O)N1CCC[C@H]1C(=O)N[C@@H](Cc1c[nH]c2ccccc12)C(N)=O [AVPW] (H-AVPW-NH2; N-terminus and C-terminus assumed) | 1.0817 | 0.11 |  | Intensity (470 nm) (BIR3 domain of XIAP): 23435; Fraction free (BIR3 domain of XIAP): 0.9418
11 | CC(C)[C@H](NC(=O)[C@H](C)N)C(=O)N1CCC[C@H]1C(=O)N[C@@H](Cc1ccc(O)cc1)C(N)=O [AVPY] (H-AVPY-NH2; N-terminus and C-terminus assumed) | 1.1692 | 0.3 |  | Intensity (470 nm) (BIR3 domain of XIAP): 39093; Fraction free (BIR3 domain of XIAP): 0.8657
12 | AbuVPI (peptide) |  |  |  | Fraction free [2]: 0.887; Intensity (470 nm) [2]: 34800
13 | AQPI (Synthetic tetrapeptide) |  |  | 0.94 | 
14 | AMPI (Synthetic tetrapeptide) |  |  | 0.73 | 
15 | AYPI (Synthetic tetrapeptide) |  |  | 0.59 | 
16 | ALPI (Synthetic tetrapeptide) |  |  | 0.29 | 
17 | ACPI (Synthetic tetrapeptide) |  |  | 0.65 | 
18 | AKPI (Synthetic tetrapeptide) |  |  | 0.57 | 
19 | AIPI (Synthetic tetrapeptide) |  |  | 0.39 | 
20 | AFPI (Synthetic tetrapeptide) |  |  | 0.79 | 

— patent publication US20050176649A1, “Iap binding peptides and assays for identifying compounds that bind iap” (priority 2001, published 2005)
